Measured values from patent US20230322743A1, “NOVEL […] DERIVATIVES HAVING PRODRUG PROPERTIES” (Compass Pathfinder Limited, priority 2020, published 2023).
In brackets after ≈: the same amount, converted by molar mass.

Assays:
[1] = Micro shake flask LogD; settings: for Mean LogD: Octanol:PBS 1:9 at pH 7.4, 10 μM, six replicates
Method: 6 replicates of each test compound were incubated at 10 μM in a 1:9 ratio of Octanol:PBS at pH 7.4. Following a two hour incubation at room temperature shaking at 600 rpm, the incubation plate was centrifuged for 15 minutes to separate the layers and then two aliquots were removed from the PBS layer. The first was left neat and the second was diluted 10-fold to give dilute samples. Internal standards were added to both the calibration curve and the PBS incubation samples for analysis on LC MS/MS. […] 5,6-MDAI-tryptophanamide and 3,4-MDA-tryptophanamide were prepared as hemioxalate salts.
LogD was measured as the concentration in the PBS layer against the generated calibration curve relative to the starting concentration of 10 μM. All 6 replicates of the neat samples were averaged to give one value for each, with the same calculation performed for the dilute sample values.
6 replicates of each test compound were incubated at 10 μM in a 1:9 ratio of Octanol:PBS at pH 7.4. Following a two hour incubation at room temperature shaking at 600 rpm, the incubation plate was centrifuged for 15 minutes to separate the layers and then two aliquots were removed from the PBS layer. The first was left neat and the second was diluted 10-fold to give dilute samples.

[2] = test system: monoamine neurotransmitter release; assay: Microdialysis of nucleus accumbens with HPLC analysis of dopamine, noradrenaline and serotonin; format: in vivo, Male Sprague Dawley rats; settings: rat, PO, 5 mg/kg
[3] = Kinetic turbidimetric solubility assay; settings: for Solubility: Example 12, 0.01 M phosphate buffered saline pH 7.4, 2% DMSO, room temperature, maximum concentration tested 200 μM, test compounds as hemioxalate salts; for solubility at 5 min: phosphate buffered saline, pH 7.4, aqueous buffer, kinetic from dmso stock
[4] = test system: behavioural measures of serotonin syndrome; assay: Behavioural observations for measures of serotonin syndrome in rats; settings: rat, PO, 5 mg/kg; scored post-treatment up to 2 hours
[5] = test system: locomotor activity; assay: Locomotor activity in rats following oral dosing (EthoVision tracking); format: in vivo, Male Sprague Dawley rats; settings: rat, 5 mg/kg
[6] = test system: rats; settings: previously shown, Baumann et al. 2008; cited from earlier work
[7] = Example 13, glycinamides as hemioxalate salts
[8] = Example 12, test compounds as hemioxalate salts

Structure (SMILES)	Mean LogD [1, 7]	Mean LogD [1, 8]	Serotonin levels in nucleus accumbens, compared to the vehicle group ([2]; 2 hour period following dosing)	Magnitude of effect on serotonin levels compared to MDMA ([2]; nucleus accumbens)	Solubility [3] [µM]	Observations (approximate timecourse), behaviours significantly increased vs vehicle [4]	solubility at 5 min [3] [µM]	other results
CC(Cc1ccc2c(c1)OCO2)NC(=O)CN (centres unmarked) [3,4-MDA-glycinamide]	1.08	–	–	–	–	–	–	LogD compared with that of MDMA ([1]; Example 13, Octanol:PBS at pH 7.4): slightly greater than that of MDMA
CC(Cc1ccc2c(c1)OCO2)NC(=O)[C@@H](N)Cc1c[nH]c2ccccc12 (some centres unmarked) [3,4-MDA-tryptophanamide]	–	1.97	significant increases	smaller in magnitude compared to MDMA	>200	None	–	Dopamine levels in nucleus accumbens, compared to the vehicle group ([2]; 2 hour period following dosing): significant increases; Noradrenaline levels in nucleus accumbens, compared to the vehicle group ([2]; 2 hour period following dosing): significant increases; Magnitude of effects on dopamine and noradrenaline levels compared to MDMA ([2]; nucleus accumbens): smaller in magnitude compared to MDMA
CC(Cc1ccc2c(c1)OCO2)N(C)C(=O)CN (centres unmarked) [3,4-MDMA-glycinamide]	0.66	–	–	–	–	–	–	–
N[C@@H](Cc1c[nH]c2ccccc12)C(=O)NC1Cc2cc3c(cc2C1)OCO3 [5,6-MDAI-tryptophanamide]	–	2.31	significant increases	smaller in magnitude compared to MDMA	>200	None	–	–
CNC(C)Cc1ccc2c(c1)OCO2 (centres unmarked) [MDMA, 3,4-Methylenedioxy-N-methylamphetamine]	–	–	–	–	–	Flattened posture (~0-40 mins) and hind limb	≥ 200	logD at 2 h ([1]; pH 7.4): 0.57; Effect on locomotor activity (significant change in total distance travelled vs vehicle) ([5]; 0-60 mins): ↑↑↑ (↑↑↑, p < 0.001); Effect on locomotor activity (significant change in total distance travelled vs vehicle) ([5]; 0-120 mins): ↑↑↑ (↑↑↑, p < 0.001); Effect on locomotor activity (significant change in total distance travelled vs vehicle) ([5]; 60-120 mins): ↑↑↑ (↑↑↑, p < 0.001); Behavioural measures of serotonin syndrome [6]: induce; Locomotion [6]: hyperlocomotion; Monoamine neurotransmitter levels [6]: elevations
COC(=O)C1=C(C)NC(C)=C(C(=O)OCCN(C)Cc2ccccc2)C1c1cccc([N+](=O)[O-])c1 (centres unmarked) [Nicardipine, reference compound]	–	–	–	–	–	–	22.1 (≈ 10.6 µg/mL)	–
